Where “and” joins values, the source holds several entries; their conditions need not be identical. Equal entries are not always repeated.
Columns and labels:
[1] = target: T1, mouse delta opioid receptor (mDOR) (Mus musculus, UniProt P32300); assay: BRET assay, G-protein activation, mDOR; type: cell-based
T1 construct: expressed in transfected cells; host or cells: HEK-293T, transient (PEI), with BRET sensor cDNAs

mKOR [2] = target: T2, mKOR (Mus musculus, UniProt P33534); assay: Radioligand competition binding ([125I]IBNtxA), CHO membranes, mKOR; details: vs 125IBNtxA (0.1 nM), mean ± SEM
T2 construct: expressed in transfected cells

[3] = target: T3, rat kappa opioid receptor (rKOR) (Rattus norvegicus, UniProt P34975); assay: BRET assay, arrestin recruitment, rKOR; type: cell-based
T3 construct: expressed in transfected cells; host or cells: HEK-293T, transient (PEI), with BRET sensor cDNAs

mMOR [4] = target: T4, mMOR (Mus musculus, UniProt P42866); assay: [35S]GTPγS functional assay, mMOR; type: biochemical
T4 construct: expressed in transfected cells

hKOR [5] = target: T5, hKOR (Homo sapiens, UniProt P41145); assay: cAMP inhibition assay (GloSensor, HEK 293T), hKOR; type: cell-based
T5 construct: expressed in transfected cells; host or cells: HEK 293T (ATCC CRL-11268), transient

hMOR [6] = target: T6, hMOR (Homo sapiens, UniProt P35372); assay: Tango β-arrestin recruitment assay, hMOR; type: cell-based
T6 construct: expressed in transfected cells; host or cells: HEK 293T (ATCC CRL-11268), transient

mKOR [7] = target: T2, mKOR; assay: [35S]GTPγS functional assay, mKOR; type: biochemical
mMOR [8] = target: T4, mMOR; assay: Radioligand competition binding ([125I]IBNtxA), CHO membranes, mMOR; details: vs 125IBNtxA (0.1 nM), mean ± SEM
[9] = target: T1, mouse delta opioid receptor (mDOR); assay: BRET assay, arrestin recruitment, mDOR; type: cell-based
[10] = target: T7, mouse mu opioid receptor (mMOR) (Mus musculus, UniProt P42866); assay: cell-based; type: cell-based
T7 construct: expressed in transfected cells; host or cells: HEK-293T, transient (PEI), with BRET sensor cDNAs

hDOR [11] = target: T8, hDOR (Homo sapiens, UniProt P41143); assay: Tango β-arrestin recruitment assay, hDOR; type: cell-based; parameters: expressed in transfected cells; host or cells: HTLA cells expressing TEV fused-beta-Arrestin2
[12] = target: T7, mouse mu opioid receptor (mMOR); assay: cell-based; type: cell-based; remark: listed apart in the source
hDOR [13] = target: T8, hDOR; assay: cAMP inhibition assay, hDOR; type: cell-based; parameters: expressed in transfected cells
hKOR [14] = target: T5, hKOR; assay: Tango β-arrestin recruitment assay, hKOR; type: cell-based
mDOR [15] = target: T9, mDOR (Mus musculus, UniProt P32300); assay: [35S]GTPγS functional assay, mDOR; type: biochemical
T9 construct: expressed in transfected cells

[16] = target: T3, rat kappa opioid receptor (rKOR); assay: BRET assay, G-protein activation, rKOR; type: cell-based
hMOR [17] = target: T6, hMOR; assay: cell-based; type: cell-based
mDOR [18] = target: T9, mDOR; assay: Radioligand competition binding ([125I]IBNtxA), CHO membranes, mDOR; details: vs 125IBNtxA (0.1 nM), CHO membranes, mean ± SEM
C57BL/6J mice [19] = assay: Conditioned place preference and aversion; details: MP1207 100 nmol icv, morphine 10 mg/kg IP, U50,488h 30 mg/kg IP
C57BL/6J mice [20] = details: icv, same assay (Aldrich et al., 2014); cited from earlier work
C57 mice = assay: Respiratory rate (CLAMS); details: 10 mg/kg IP or 30 nmol icv, 10 mg/kg
[21] = read-out: Arrestin recruitment Emax % ± SEM

## O=C(N[C@@H]1CC[C@@]2(O)C3Cc4ccc(O)cc4[C@@]2(CCN3CC2CC2)C1)c1cccc(I)c1 [MP1601, N-((4bR,6R,8aS)-11-(Cyclopropylmethyl)-3,8a-dihydroxy-6,7,8,8a,9,10-hexahydro-5H-9,4b-(epiminoethano)phenanthren-6-yl)-3-iodobenzamide]
[1]; mDOR, BRET
  G-Protein activation pEC50 ± SEM: 8.2 ± 0.20
[1]; read-out: G-Protein activation Emax % ± SEM
  Emax: 105 ± 6.7%
mKOR [2]
  Ki: 2.13 ± 0.3 nM
[3]
  Emax: 37 ± 3%
[3]; BRET
  Arrestin pEC50±SEM rKOR: 7.2±0.23
  EC50: 56.5 nM
mMOR [4]
  Emax: 45 ± 4.6%
mMOR [4]; [35S]GTPγS, nM ± SEM
  EC50: 0.5 ± 0.2 nM
hKOR [5]; HEK-293T, read-out: Gi Emax hKOR
  Emax: 109 ± 1%
hKOR [5]; cAMP inhibition
  Gi pEC50±SEM hKOR: 9.76±0.05
hKOR [5]; cAMP inhibition vs Tango, against U50,488H as control
  Bias factor toward G protein, hKOR: 0.15
hKOR [5]; cAMP inhibition, read-out: Gi EC50 hKOR
  EC50: 0.17 nM
hMOR [6]
  Emax: 27 ± 2%
hMOR [6]; Tango
  Arrestin pEC50±SEM hMOR: 8.4±0.2
mKOR [7]
  Emax: 72 ± 4.5%
mKOR [7]; [35S]GTPγS, nM ± SEM
  EC50: 3 ± 0.7 nM
mMOR [8]
  Ki: 0.2 ± 0.01 nM
[9]; mDOR, BRET
  EC50: 9 nM
[9]; [21]
  Emax: 16 ± 1.4%
[10]
  arrestin recruitment at mMOR: no arrestin recruitment was observed
hDOR [11]; hDOR, Tango
  Arrestin recruitment pEC50 ± SEM: 7.1 ± 0.06
  EC50: 86.7 nM
hDOR [11]; [21]
  Emax: 203 ± 5.4%
[12]
  Gi pEC50±SEM mMOR: 8.6±0.3
[12]; read-out: Gi EC50 mMOR
  EC50: 2.2 nM
[12]; read-out: Gi Emax mMOR
  Emax: 49 ± 3%
hDOR [13]; hDOR
  EC50: 2.76 nM
  cAMP inhibition pEC50 ± SEM: 8.6 ± 0.06
hDOR [13]; read-out: cAMP inhibition Emax % ± SEM
  Emax: 106 ± 2.3%
hKOR [14]
  Emax: 107 ± 3%
hKOR [14]; Tango, WT-hKOR
  Arrestin pEC50±SEM hKOR: 8.49±0.07
mDOR [15]
  Emax: 67 ± 3.9%
mDOR [15]; [35S]GTPγS, nM ± SEM
  EC50: 10 ± 1.6 nM
[16]; BRET
  Gi pEC50±SEM rKOR: 8.1±0.12
[16]; BRET assays, against U50,488H as control
  Bias factor toward G-protein, rKOR: 0.9
[16]; BRET, read-out: Gi EC50 rKOR
  EC50: 8.9 nM
[16]; read-out: Gi Emax rKOR
  Emax: 75 ± 3%
hMOR [17]
  Bias factor toward G protein, hMOR: 4
  Gi pEC50±SEM hMOR: 9.99±0.09
hMOR [17]; HEK-293T, read-out: Gi Emax hMOR
  Emax: 69 ± 1%
hMOR [17]; read-out: Gi EC50 hMOR
  EC50: 0.1 nM
mDOR [18]
  Ki: 5.37 ± 0.9 nM

## CN1CC[C@]23c4c5ccc(O)c4O[C@H]2[C@@H](O)C=C[C@H]3[C@H]1C5 [Morphine, reference compound]
C57BL/6J mice [19]
  conditioned place preference or aversion (CPP/CPA): place preference
C57BL/6J mice [20]
  antinociceptive ED50 (95% CI), reported: 2.35 (1.13-5.03) nmol and 2.35 nmol
C57 mice
  respiratory rate: significant reduction in respiratory rates
C57 mice; listed as morphine
  respiratory rate: decreased respiratory rate

— patent US11613547B2 (priority 2019, dated 2023)
